Experimental data: BindingDB's records for PubMed 9223568 (Yamanouchi Pharmaceutical, 1997)
Several values for one entry are separate records, joined by “and”; a condition that tells them apart may be missing. Equal entries are not always repeated. Numbered stars: 1 amine (or outer) side, 2 acyl side, 3 side chain; on linkers, the order of the positions; unused ones are H or OH. Bridge positions count the residues as written; N and C are the ends. Peptide text beside a SMILES is read from it. X1 = O=C(CC1(S[*:2])CCCCC1)[*:1]

Legend:
[1] = molecular target: T1, Oxytocin receptor (Rattus norvegicus, UniProt P70536)
T1 sequence (P70536 whole entry): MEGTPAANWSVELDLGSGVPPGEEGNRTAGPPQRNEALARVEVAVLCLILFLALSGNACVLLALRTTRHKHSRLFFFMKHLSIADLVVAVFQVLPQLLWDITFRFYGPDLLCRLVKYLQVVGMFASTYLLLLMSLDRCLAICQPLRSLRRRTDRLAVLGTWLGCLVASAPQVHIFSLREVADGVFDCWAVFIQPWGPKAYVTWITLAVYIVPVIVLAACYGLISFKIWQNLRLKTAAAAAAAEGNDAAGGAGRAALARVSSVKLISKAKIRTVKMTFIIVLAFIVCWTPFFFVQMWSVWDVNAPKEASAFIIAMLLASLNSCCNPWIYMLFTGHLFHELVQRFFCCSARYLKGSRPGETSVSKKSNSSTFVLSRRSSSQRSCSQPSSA

[2] = molecular target: T2, Vasopressin V1b receptor (Rattus norvegicus, UniProt P48974)
T2 sequence (P48974 whole entry): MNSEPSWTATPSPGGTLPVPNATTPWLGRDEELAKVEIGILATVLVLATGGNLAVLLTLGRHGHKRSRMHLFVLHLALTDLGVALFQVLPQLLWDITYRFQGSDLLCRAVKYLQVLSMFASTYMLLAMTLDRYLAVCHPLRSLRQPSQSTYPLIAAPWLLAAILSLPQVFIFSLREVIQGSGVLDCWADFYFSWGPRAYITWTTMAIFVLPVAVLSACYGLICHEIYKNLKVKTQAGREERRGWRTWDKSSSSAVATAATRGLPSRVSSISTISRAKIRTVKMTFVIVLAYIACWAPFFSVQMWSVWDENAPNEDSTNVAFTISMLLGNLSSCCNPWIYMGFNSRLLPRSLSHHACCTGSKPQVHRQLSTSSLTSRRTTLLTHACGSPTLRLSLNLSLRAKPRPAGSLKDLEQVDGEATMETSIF

[3] = molecular target: Vasopressin V1a receptor (Rattus norvegicus, UniProt P30560)
[4] = molecular target: Vasopressin V2 receptor (Rattus norvegicus, UniProt Q00788)
Sequence of Vasopressin V2 receptor (Q00788 whole entry): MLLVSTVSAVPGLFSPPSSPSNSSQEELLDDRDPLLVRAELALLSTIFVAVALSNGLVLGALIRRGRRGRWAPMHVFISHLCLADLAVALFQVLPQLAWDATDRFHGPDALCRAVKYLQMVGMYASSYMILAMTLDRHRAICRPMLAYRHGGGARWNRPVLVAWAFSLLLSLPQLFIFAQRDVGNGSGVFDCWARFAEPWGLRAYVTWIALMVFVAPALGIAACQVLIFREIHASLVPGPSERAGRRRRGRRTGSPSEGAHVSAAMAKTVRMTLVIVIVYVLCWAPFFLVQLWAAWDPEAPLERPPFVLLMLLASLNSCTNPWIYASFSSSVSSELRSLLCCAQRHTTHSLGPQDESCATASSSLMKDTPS

Sequence of Vasopressin V1a receptor (P30560 whole entry): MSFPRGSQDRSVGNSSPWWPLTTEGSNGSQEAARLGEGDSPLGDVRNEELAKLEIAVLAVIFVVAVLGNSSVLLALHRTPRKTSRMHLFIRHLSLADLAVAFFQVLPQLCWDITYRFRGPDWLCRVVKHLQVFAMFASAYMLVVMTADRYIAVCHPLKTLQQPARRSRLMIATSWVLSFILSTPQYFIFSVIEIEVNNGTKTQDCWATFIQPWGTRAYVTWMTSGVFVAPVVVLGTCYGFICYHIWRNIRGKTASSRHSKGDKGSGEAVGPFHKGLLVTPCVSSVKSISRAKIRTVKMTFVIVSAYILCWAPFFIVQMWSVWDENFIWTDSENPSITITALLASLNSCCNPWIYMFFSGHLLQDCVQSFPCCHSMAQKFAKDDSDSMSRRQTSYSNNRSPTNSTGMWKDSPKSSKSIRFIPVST

| SMILES | Ki [1] [nM] | Ki [2] [nM] | Ki [3] | Ki [4] |
| --- | --- | --- | --- | --- |
| Cc1nc2c([nH]1)-c1ccccc1N(C(=O)c1ccc(NC(=O)c3ccccc3-c3ccccc3)cc1)CC2 [CONIVAPTAN] | 44.4 | > 10000 | 0.48 nM and 0.24 nM | 3.04 nM and 0.38 nM |
| COc1ccc(C[C@@H]2NC(=O)CC3(CCCCC3)SSC[C@@H](C(=O)N3CCC[C@H]3C(=O)N[C@@H](CCCN=C(N)N)C(=O)NCC(N)=O)NC(=O)[C@H](CC(N)=O)NC(=O)[C@H](CCC(N)=O)NC(=O)[C@H](Cc3ccccc3)NC2=O)cc1 [NSC_105077] (Y(Me)FQNCPRG-NH2; linker N-5 via X1) |  | 37.6 | 1.79 nM and 0.33 nM | 39.6 nM and 100 nM |
| CC(=O)NCCCOc1ccc(C(=O)N2CCC(N3C(=O)CCc4ccccc43)CC2)cc1 [N-(3-(4-(4-(2-oxo-3,4-dihydroquinolin-1(2H)-yl)piperidine-1-carbonyl)phenoxy)propyl)acetamide] | 333 | > 10000 | 23.5 nM and 14.9 nM | > 10000 nM |
| NC(=O)CC[C@@H]1NC(=O)[C@H](Cc2ccccc2)NC(=O)[C@H](Cc2ccc(O)cc2)NC(=O)CCSSC[C@@H](C(=O)N2CCC[C@H]2C(=O)N[C@H](CCCN=C(N)N)C(=O)NCC(N)=O)NC(=O)[C@H](CC(N)=O)NC1=O [NSC_64759] |  |  |  | 1.93 nM and 7.94 nM |
| Cc1ccccc1C(=O)Nc1ccc(C(=O)N2CCCC(N(C)C)c3ccccc32)cc1 (stereo not given) | 1550 | > 10000 | 232 nM |  |
